Measured values published in PubChem BioAssay AID2696 (Johns Hopkins Ion Channel Center, 2010).
pIC50: −log10 of the molar value.

Biological target: Short transient receptor potential channel 6 (Mus musculus) (UniProt Q61143)
Test: TRPC6 inhibitor potency, dose response, cell-based, mouse TRPC6, HEK293, membrane potential (AID 2696)
Details: TRPC6-expressing HEK293 cells, membrane potential dye fluorescence, acetylcholine-stimulated

Chain of Short transient receptor potential channel 6 (Mus musculus) (Q61143 whole entry, looked up): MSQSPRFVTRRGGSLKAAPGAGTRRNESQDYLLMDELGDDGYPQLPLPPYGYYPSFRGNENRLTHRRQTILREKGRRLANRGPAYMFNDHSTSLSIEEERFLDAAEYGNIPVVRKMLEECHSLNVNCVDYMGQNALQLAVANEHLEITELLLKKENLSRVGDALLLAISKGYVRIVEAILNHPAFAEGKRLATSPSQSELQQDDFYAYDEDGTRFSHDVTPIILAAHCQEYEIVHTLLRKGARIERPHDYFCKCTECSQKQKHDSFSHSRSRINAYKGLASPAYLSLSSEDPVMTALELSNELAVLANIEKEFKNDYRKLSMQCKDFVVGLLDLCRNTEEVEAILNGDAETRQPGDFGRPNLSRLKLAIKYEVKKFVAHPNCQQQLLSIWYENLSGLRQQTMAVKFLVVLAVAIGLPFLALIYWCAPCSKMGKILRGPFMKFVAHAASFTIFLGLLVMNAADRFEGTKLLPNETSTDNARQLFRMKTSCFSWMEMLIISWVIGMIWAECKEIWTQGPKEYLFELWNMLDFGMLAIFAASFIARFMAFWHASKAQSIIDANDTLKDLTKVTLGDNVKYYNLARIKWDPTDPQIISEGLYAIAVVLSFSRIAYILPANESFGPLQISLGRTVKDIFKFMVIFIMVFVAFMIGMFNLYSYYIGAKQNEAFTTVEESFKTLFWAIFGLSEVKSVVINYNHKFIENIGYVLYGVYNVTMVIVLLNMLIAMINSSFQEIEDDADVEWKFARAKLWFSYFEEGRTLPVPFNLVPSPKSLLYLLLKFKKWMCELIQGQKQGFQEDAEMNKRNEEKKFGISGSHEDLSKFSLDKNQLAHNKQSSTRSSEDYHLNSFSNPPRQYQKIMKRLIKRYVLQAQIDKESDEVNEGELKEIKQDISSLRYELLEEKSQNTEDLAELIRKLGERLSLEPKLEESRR

Row | Structure (SMILES) | pIC50
1 | CC(Cc1ccccc1Sc1ccc(O)cc1)N(C)C (stereo not drawn) | 4.50
2 | Oc1ccccc1Nc1nc(NCC2CCCO2)c2ccccc2n1 (stereo not drawn) | 4.30
3 | COC(=O)C(NC(=O)c1ccc(C)cc1)(Nc1cccc(C)n1)C(F)(F)F (stereo not drawn) | 4.30
4 | Nc1c2ccccc2nc2ccccc12 | 4.15
5 | Cc1cc(C)c2nc(C)cc(Nc3ccc(C(=O)N4CCOCC4)cc3)c2c1 | 4.10
6 | C[N+]1(C)C2CCC1CC(OC(=O)C(CO)c1ccccc1)C2 (stereo not drawn) | 7.15
7 | Cc1ccccc1CCNCc1cc2cccc(C)c2[nH]c1=O | 4.30
8 | Cc1ccc(-c2cc(-c3ccc(C)cc3)[n+](-c3ccccc3)c(-c3ccc(C)cc3)c2)cc1 | 4.30
9 | CC(C)(C)NCc1cc(Br)ccc1OCc1cccs1 | 4.15
10 | COc1cc2c(cc1O)CC[n+]1cc3c(OC)c(OC)ccc3cc1-2 | 4.30
11 | Cc1cccc(CCNCc2cc3cccc(C)c3[nH]c2=O)c1 | 4.30
12 | CN(C)CCNS(=O)(=O)c1ccc(N2CCN(c3ccc(F)cc3)CC2)c([N+](=O)[O-])c1 | 4.25
13 | CC(Cc1ccccc1Sc1ccccc1O)N(C)C (stereo not drawn) | 4.40
14 | Nc1c2c(nc3ccccc13)N(C1CCCCC1)CC2 | 4.15
15 | CCCc1cc(=S)n2c([nH]c3ccccc32)c1C#N | 4.30
16 | C[N+](C)(N)CCOC(=O)C(O)(c1ccccc1)C1CCCCC1 (stereo not drawn) | 6.49
17 | CCCC[n+]1ccc(-c2nc3ccc([N+](=O)[O-])cc3[nH]2)cc1 | 4.25
18 | CCOC(=O)N1CCN(Cc2nc(-c3ccc(Cl)cc3)no2)CC1 | 4.10
19 | COC(=O)c1ccc(NC(=O)N2CCCC(C(=O)c3ccccc3OC)C2)cc1 (stereo not drawn) | 4.10

Row | Structure (SMILES) | pIC50
20 | CCC(CO)(C(=O)OC1C[N+]2(C)CCC1CC2)c1ccccc1 (stereo not drawn) | 5.80
21 | Cc1cccc(-c2nc(NCCCN3CCOCC3)c3ccccc3n2)c1 | 4.15
22 | CCCCCCn1c2c(c(=N)c3c1CCC3)CCC2 | 4.10
23 | CN(C)c1ccc(C2N(C)C(=O)c3ccccc3N2C)cc1 (stereo not drawn) | 4.10
24 | CCOC(=O)c1ccc(NC(=S)NCc2ccco2)cc1 | 4.30
25 | C#CC[N+]1(C)[C@@H]2CC[C@H]1CC(OC(=O)C(CO)c1ccccc1)C2 (stereo partly drawn) | 6.55
26 | Cc1cc(N=Nc2ccccc2)c(NCC(O)C(O)C(O)CO)cc1C (stereo not drawn) | 4.30
27 | Cc1ccc(Oc2ccc(NC(=O)Cn3ccsc3=N)cc2)cc1 | 4.15
28 | Cc1cccc(-c2nc(NCCCN(C)C)c3ccccc3n2)c1 | 4.15
29 | CCN(CC)CC(=O)Nc1ccc(-c2nc3cc(NC(=O)CN(CC)CC)ccc3o2)cc1 | 4.10
30 | C[N+]1(C)[C@@H]2CC[C@H]1CC(OC(=O)[C@@H](CO)c1ccccc1)C2 (stereo partly drawn) | 7.70
31 | OC(Cn1c2ccccc2c2ccccc21)C[n+]1cccc2ccccc21 (stereo not drawn) | 4.45
32 | CCC(CO)(C(=O)OC1CC2CCC(C1)N2C)c1ccccc1 (stereo not drawn) | 7.05
33 | O=C(CSc1ncccn1)N1CCN(C(c2ccccc2)c2ccccc2)CC1 | 4.30
34 | CC(C)C(O)(C#CCN1CCCCCC1)c1ccccc1 (stereo not drawn) | 4.35
35 | COc1ccccc1OCCNCC(O)COc1cccc2[nH]c3ccccc3c12 (stereo not drawn) | 4.35
36 | Fc1ccc([C@@H]2CCNC[C@H]2COc2ccc3c(c2)OCO3)cc1 | 4.35
37 | Clc1ccc2c(N3CCCC3)ccnc2c1 | 4.25
38 | CCCCNC(=O)c1cc2c(=O)n3cccc(C)c3nc2n(Cc2ccncc2)c1=N | 4.35

Row | Structure (SMILES) | pIC50
39 | Cc1ccc(C(OCC(C)(C)C[N+](C)(C)C)c2ccccc2)cc1 (stereo not drawn) | 4.35
40 | COc1ccc(OC)c2sc(N(CCN(C)C)C(=O)c3ccc4ccccc4c3)nc12 | 4.15
41 | Cc1cc(C)n(-c2nc(SCCN(C)C)c3c4c(sc3n2)COC(C)(C)C4)n1 | 4.10
42 | CCc1ccc(N=C2N=C(N)c3ccccc32)cc1 | 4.30
43 | Cc1cccc(NS(=O)(=O)c2cccc(C(=O)N3CCN(c4ccccn4)CC3)c2)c1 | 4.30
44 | Cc1nnc(-c2ccccc2)c(=O)n1/N=C/c1c(O)ccc2ccccc12 | 4.10
45 | Cc1ccc(OCCCCCCN2CCNCC2)c(Br)c1 | 4.10
46 | CCN(c1ccccc1)S(=O)(=O)c1cccc(C(=O)N2CCN(S(=O)(=O)c3ccccc3)CC2)c1 | 4.20
47 | COc1ccc2nc(C)cc(Nc3ccc(N4CCN(C)CC4)cc3)c2c1 | 4.10
48 | O=C1Nc2ccccc2OC1CC(=O)N1CCN(c2cccc(C(F)(F)F)c2)CC1 (stereo not drawn) | 4.10
49 | CN(C)CCOc1nc(-c2ccccc2)nc2c1oc1ccccc12 | 4.15
50 | COc1ccc(-n2nc(C(=O)c3cccs3)cc(-c3nc4ccccc4[nH]3)c2=N)cc1 | 4.30
51 | CC1CCN(CC(C)CNC(=O)c2cc(-c3ccccn3)nc3ccccc23)CC1 (stereo not drawn) | 4.35
52 | CCOC(=O)c1ccc(NC(=O)CC2COc3ccccc3O2)cc1 (stereo not drawn) | 4.20
53 | O=C(c1ccccc1)N1CCN(C2C3CC4CC(C3)CC2C4)CC1 (stereo not drawn) | 4.35
54 | Cc1nnc(SCCn2c(N3CCN(C)CC3)nc3c2c(=O)[nH]c(=O)n3C)s1 | 4.30
55 | c1ccc2c(c1)CC1CNCc3cccc(c31)S2 (stereo not drawn) | 4.15
56 | COc1ccccc1Nc1nc(NCC2CCCO2)c2ccccc2n1 (stereo not drawn) | 4.10

The next lines start with the values.

Row | pIC50 | Structure (SMILES)
57 | 4.40 | CCCCCCCCCCn1ccc(=N)cc1
58 | 4.90 | CCCCCC[N+](C)(C)CC/C=C1/c2ccccc2Sc2ccc(Cl)cc21
59 | 5.15 | O=S(=O)(Nc1nc2ccccc2[nH]1)c1ccc(Cl)cc1
60 | 4.35 | Cc1c(C)n(Cc2ccccc2)c2ccc(C(=O)OCCCN(C)C)cc12
61 | 4.35 | N=c1c(C(=O)NCC2CCCO2)cc2c(=O)n3ccccc3nc2n1Cc1ccccc1Cl (stereo not drawn)
62 | 4.40 | CC(C)c1ccc(OCC(O)Cn2cnc3ccccc32)cc1 (stereo not drawn)
63 | 4.40 | CN(C)CCn1c(C(=O)Nc2ccccc2)cc2ccccc21
64 | 4.95 | CC1CCCN1CC#CC(O)(c1ccccc1)c1ccccc1 (stereo not drawn)
65 | 5.05 | Cc1nnsc1C(=O)N/N=C/c1ccc2ccccc2c1O
66 | 4.75 | CN(C)C(C)(C)/C=C/C(O)(c1ccccc1)c1ccccc1
67 | 4.70 | O=C(c1ccc2c(=O)n3c(nc2c1)CCCCC3)N1CCN(C(c2ccccc2)c2ccccc2)CC1
68 | 5.80 | CC(=O)OCC[N+](C)(C)C
69 | 4.70 | Cc1ccc(C(O)(CCN2CCCCC2)c2ccccc2)cc1 (stereo not drawn)
70 | 5.10 | CCN(CC)CCC/C(=N\O)C(O)(c1ccccc1)c1ccccc1
71 | 4.40 | COc1ccc(N2CCN(S(=O)(=O)CCNC(=O)COc3ccccc3C)CC2)cc1
72 | 5.45 | CCCC(CCC)C(=O)OC1C[C@H]2CC[C@@H](C1)[N+]2(C)C (stereo partly drawn)
73 | 4.35 | Cn1c(=O)c(C#N)c(-c2ccc(F)cc2)c2cc(C(=O)c3cc(Cl)cc(Cl)c3O)cnc21
74 | 4.40 | COC(=O)c1ccc(NC(=O)c2snnc2-c2ccccc2)cc1
75 | 4.95 | C[N+](C)(C)C/C=C1/COCO1
76 | 4.35 | Cc1cccn2c(=O)c3cc(C(=O)NCc4ccco4)c(=N)n(C(C)C)c3nc12
77 | 4.35 | O=C(c1ccc(C(=O)N2CCCc3ccccc32)s1)N1CCCc2ccccc21

Row | pIC50 | Structure (SMILES)
78 | 4.35 | CC(C)(C)NCc1cc(Br)ccc1OC1CCCC1
79 | 4.35 | CC1=NN(c2ccccc2)C(=O)/C1=C/C=C/c1ccc(N(C)C)cc1
80 | 4.40 | S=c1[nH]nc(Cc2ccccc2)n1Cc1ccco1
81 | 6.05 | CN(CCOC(=O)C1c2ccccc2Oc2ccccc21)C(C)(C)C
82 | 4.35 | Nc1nc(N2CCN(C/C=C/c3ccccc3)CC2)nc2ccccc12
83 | 7.10 | CN1[C@@H]2CC[C@H]1CC(OC(=O)C(CO)c1ccccc1)C2 (stereo partly drawn)
84 | 4.35 | CCOC(=O)c1nc2cc3n(c(C)c-2c1C)C(C)C(C)=C3C (stereo not drawn)
85 | 5.40 | Cc1ccc2c(c1)NC(=O)C(CC(=O)Nc1ccc(CN3CCC(C)CC3)cc1)O2 (stereo not drawn)
86 | 4.35 | Cc1cc(N2CCN(C)CC2)ccc1NC(=O)c1ccc(-c2ccc(Cl)cc2)o1
87 | 5.55 | Cc1ccc(S(=O)(=O)NNC(=O)C2CCN(Cc3ccccc3)CC2)cc1
88 | 5.65 | CC1CCN(Cc2ccc(NC(=O)CC3Oc4ccccc4NC3=O)cc2)CC1 (stereo not drawn)
89 | 4.40 | Cc1onc(-c2c(F)cccc2Cl)c1C(=O)NC(=S)Nc1c(C)n(C)n(-c2ccccc2)c1=O
90 | 4.35 | CCOC(=O)N1CCC(N2Cc3cccc(C(=O)Nc4ccc(CC)cc4)c3C2=O)CC1
91 | 4.35 | Cc1ccc(CNc2ccc3c(c2)ncn3C(C)(C)C)cc1
92 | 4.35 | CCN(CC)CCSc1nnc(Nc2ccccc2)n1-c1ccccc1
93 | 4.95 | CN1CCN(c2ncccc2S(=O)(=O)N2CCCCC2)CC1
94 | 4.90 | CN(CC#CC(O)(c1ccccc1)c1ccccc1)C(C)(C)C
95 | 4.45 | Cc1ccc(SC(=O)c2c([N+](=O)[O-])c(C)nn2C)cc1
96 | 4.40 | Cc1cc(C)c2nc(N3CCC(C(=O)NCCCN4CCCCC4)CC3)sc2c1
97 | 7.40 | C[N+]12CCC(CC1)C(OC(=O)C(O)(c1ccccc1)c1ccccc1)C2 (stereo not drawn)
98 | 5.50 | CC(C)Cn1c(=O)c(C(=O)Nc2ccncc2)c(O)c2ccccc21

Row | pIC50 | Structure (SMILES)
99 | 5.75 | CCN(CC)CCOC(=O)C1c2ccccc2Oc2ccccc21
100 | 5.45 | OC(C#CCCN1CCCCC1)(c1ccccc1)C1CCCCC1 (stereo not drawn)
101 | 4.40 | CN(C)CCN(C(=O)c1cccs1)c1nc2cc3c(cc2s1)OCCO3
102 | 4.90 | CN(C)CCOC1c2ccccc2CSc2ccccc21 (stereo not drawn)
103 | 4.40 | COc1ccccc1N1CCN(Cc2ccc(O)c3ncccc23)CC1
104 | 4.85 | Cc1c(C(=O)OC(C)CCN(C)C)oc2ccccc12 (stereo not drawn)
105 | 4.40 | OC(C#CCCN1CCCCC1)(c1ccccc1)c1ccccc1
106 | 5.20 | CCCCn1c(-c2ccc([N+](=O)[O-])cc2)n[nH]c1=S
107 | 4.60 | O=[N+]([O-])c1ccc(N=Nc2c(Cl)cc(O)cc2Cl)cc1
108 | 4.60 | O=c1cc(C(F)(F)F)[nH]c2c(C(F)(F)F)cccc12
109 | 4.80 | C[N+]1(CCOC(=O)C2(c3ccccc3)CCCC2)CCCCC1
110 | 7.30 | CN1CCCN=C1COC(=O)C(O)(c1ccccc1)C1CCCCC1 (stereo not drawn)
111 | 5.75 | CN(C)CCOC(=O)C(c1ccccc1)C1(O)CCCC1 (stereo not drawn)
112 | 4.40 | Nc1nc(Nc2cccc(F)c2)nc2ccccc12
113 | 5.05 | CCN(CC)CC#CC(O)(c1ccccc1)c1ccccc1
114 | 4.75 | Cc1ccc(S(=O)(=O)n2c(N)nc3ccccc32)cc1
115 | 4.80 | Oc1ccc(CN2CCc3ccccc3C2)c2cccnc12
116 | 4.80 | CN1CCCC(C#CC(O)(c2ccccc2)c2ccccc2)C1 (stereo not drawn)
117 | 5.10 | Cn1c2c(c(=O)n(C)c1=O)C(C(F)(F)F)(C(F)(F)F)N=C(c1ccc(Cl)cc1)N2
118 | 4.40 | COc1cc(/C=N/Nc2nc(N3CCCC3)nc(N3CCCC3)n2)ccc1OCc1ccccc1F
